In patent US12692221B2 (priority 2024, dated 2026):
Values after ≈ are worked out from the molar mass of the structure shown.

Key:
H2 (h) = target: T1, H2 (h) (Homo sapiens, UniProt P25021); experiment: Radioligand binding H2 (h) (antagonist radioligand), [^125I]APT, CHO cells
T1 construct: expressed in transfected cells; host or cells: CHO cells
Method: (§1) Methods—Binding Assays: In vitro binding assays were performed using human recombinant receptors expressed in mammalian cell lines. Receptors were expressed in either HEK-293 or CHO cells depending on the target, and assay conditions (radioligand, concentration, nonspecific competitor, temperature, and incubation time) were optimized for each receptor. All assays were conducted in triplicate, and specific binding was quantified by scintillation counting as the detection method for each listed assay.
(§2) Specific binding was expressed as a percentage of control-specific binding, and percent inhibition was calculated using the formula in Ex. 8 above. Half-maximal inhibitory concentrations (IC50) were determined by non-linear regression analysis of the inhibition curves using the Hill equation (see Ex. 8). Inhibition constants (Ki) were calculated using the Cheng-Prusoff equation (see Ex. 8). KD values used in these calculations had been previously established for each receptor under the assay conditions (see Table 6). Data analysis was performed using software developed at Cerep and validated against SigmaPlot 4.0 for Windows.

M2 (h) = target: T2, M2 (h) (Homo sapiens, UniProt P08172); experiment: Radioligand binding M2 (h) (antagonist radioligand), [^3H]AF-DX 384, CHO cells
T2 construct: expressed in transfected cells; host or cells: CHO cells
T2 sequence (P08172 1-466): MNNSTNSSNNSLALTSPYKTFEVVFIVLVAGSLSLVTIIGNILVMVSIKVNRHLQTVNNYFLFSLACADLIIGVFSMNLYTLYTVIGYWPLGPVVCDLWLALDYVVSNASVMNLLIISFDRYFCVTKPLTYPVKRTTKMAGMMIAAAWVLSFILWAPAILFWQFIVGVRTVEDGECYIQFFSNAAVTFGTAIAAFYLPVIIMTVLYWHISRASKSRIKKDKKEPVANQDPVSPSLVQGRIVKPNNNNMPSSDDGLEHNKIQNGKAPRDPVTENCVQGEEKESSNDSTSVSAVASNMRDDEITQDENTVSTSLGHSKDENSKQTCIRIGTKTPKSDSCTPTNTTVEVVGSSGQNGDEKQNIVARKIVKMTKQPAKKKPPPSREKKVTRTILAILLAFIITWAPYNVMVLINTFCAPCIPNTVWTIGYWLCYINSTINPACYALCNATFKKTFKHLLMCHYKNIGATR
Method: as §1, §2

M3 (h) = target: T3, M3 (h) (Homo sapiens, UniProt P20309); experiment: Radioligand binding M3 (h) (antagonist radioligand), [^3H]4-DAMP, CHO cells
T3 construct: expressed in transfected cells; host or cells: CHO cells
T3 sequence (P20309 whole entry): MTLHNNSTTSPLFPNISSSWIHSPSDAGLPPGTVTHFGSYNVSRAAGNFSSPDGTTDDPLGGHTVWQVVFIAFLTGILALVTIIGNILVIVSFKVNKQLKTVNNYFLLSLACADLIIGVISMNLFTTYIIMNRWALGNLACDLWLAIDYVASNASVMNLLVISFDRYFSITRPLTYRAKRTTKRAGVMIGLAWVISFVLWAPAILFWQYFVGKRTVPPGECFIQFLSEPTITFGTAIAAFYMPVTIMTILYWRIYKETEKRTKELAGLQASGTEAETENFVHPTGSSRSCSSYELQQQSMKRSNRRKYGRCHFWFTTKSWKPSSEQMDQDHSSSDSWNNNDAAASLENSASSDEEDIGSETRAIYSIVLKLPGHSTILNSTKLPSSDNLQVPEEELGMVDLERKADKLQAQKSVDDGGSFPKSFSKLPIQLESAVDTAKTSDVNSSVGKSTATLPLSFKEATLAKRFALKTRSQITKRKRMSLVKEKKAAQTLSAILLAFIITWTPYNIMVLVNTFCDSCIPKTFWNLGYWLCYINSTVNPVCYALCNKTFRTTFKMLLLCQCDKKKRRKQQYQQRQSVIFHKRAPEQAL
Method: as §1, §2

delta (DOP) (h) = target: T4, delta (DOP) (h) (Homo sapiens, UniProt P41143); experiment: Radioligand binding delta (DOP) (h) (agonist radioligand), [^3H]DALE, Chem-1 RBL; conditions: delta (DOP) (h) (agonist radiolig.)
T4 construct: expressed in transfected cells; host or cells: Chem-1 RBL
T4 sequence (P41143 whole entry): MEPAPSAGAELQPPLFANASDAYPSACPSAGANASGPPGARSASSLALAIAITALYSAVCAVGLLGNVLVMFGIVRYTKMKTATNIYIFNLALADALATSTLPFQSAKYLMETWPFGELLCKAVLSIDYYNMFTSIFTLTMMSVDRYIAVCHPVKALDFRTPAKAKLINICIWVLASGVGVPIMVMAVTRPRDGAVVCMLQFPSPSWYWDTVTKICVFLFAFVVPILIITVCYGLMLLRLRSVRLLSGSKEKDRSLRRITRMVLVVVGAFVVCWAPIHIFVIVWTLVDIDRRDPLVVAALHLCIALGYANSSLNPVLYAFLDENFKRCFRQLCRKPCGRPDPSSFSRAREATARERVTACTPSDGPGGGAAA
Method: as §1, §2

dopamine transporter(h) = target: T5, dopamine transporter(h) (Homo sapiens, UniProt Q01959); experiment: Radioligand binding DA transporter (h) (antagonist radioligand), [^3H]BTCP, CHO cells
T5 construct: expressed in transfected cells; host or cells: CHO cells
T5 sequence (Q01959 whole entry): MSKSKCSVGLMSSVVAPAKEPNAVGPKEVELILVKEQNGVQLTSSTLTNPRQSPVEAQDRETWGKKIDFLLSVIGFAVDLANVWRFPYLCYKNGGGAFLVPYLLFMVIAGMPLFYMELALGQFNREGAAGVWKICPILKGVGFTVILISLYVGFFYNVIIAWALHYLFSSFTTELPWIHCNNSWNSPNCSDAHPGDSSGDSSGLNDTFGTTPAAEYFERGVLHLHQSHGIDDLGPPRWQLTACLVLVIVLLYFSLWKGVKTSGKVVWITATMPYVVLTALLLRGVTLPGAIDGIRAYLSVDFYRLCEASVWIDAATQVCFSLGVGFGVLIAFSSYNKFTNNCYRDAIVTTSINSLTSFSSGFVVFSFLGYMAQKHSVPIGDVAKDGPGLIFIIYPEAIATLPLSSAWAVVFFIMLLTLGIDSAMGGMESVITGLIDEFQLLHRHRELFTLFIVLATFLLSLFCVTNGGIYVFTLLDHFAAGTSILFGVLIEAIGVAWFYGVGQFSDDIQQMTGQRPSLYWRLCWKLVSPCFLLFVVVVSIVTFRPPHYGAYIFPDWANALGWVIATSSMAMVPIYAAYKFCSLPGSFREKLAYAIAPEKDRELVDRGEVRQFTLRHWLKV
Method: as §1, §2

COX2(h) = target: T6, COX2(h) (Homo sapiens, UniProt P35354); experiment: Enzyme assay COX2(h), arachidonic acid + ADHP, fluorimetry; assay type: biochemical
T6 construct: host or cells: Sf9 cells
T6 sequence (P35354 18-604): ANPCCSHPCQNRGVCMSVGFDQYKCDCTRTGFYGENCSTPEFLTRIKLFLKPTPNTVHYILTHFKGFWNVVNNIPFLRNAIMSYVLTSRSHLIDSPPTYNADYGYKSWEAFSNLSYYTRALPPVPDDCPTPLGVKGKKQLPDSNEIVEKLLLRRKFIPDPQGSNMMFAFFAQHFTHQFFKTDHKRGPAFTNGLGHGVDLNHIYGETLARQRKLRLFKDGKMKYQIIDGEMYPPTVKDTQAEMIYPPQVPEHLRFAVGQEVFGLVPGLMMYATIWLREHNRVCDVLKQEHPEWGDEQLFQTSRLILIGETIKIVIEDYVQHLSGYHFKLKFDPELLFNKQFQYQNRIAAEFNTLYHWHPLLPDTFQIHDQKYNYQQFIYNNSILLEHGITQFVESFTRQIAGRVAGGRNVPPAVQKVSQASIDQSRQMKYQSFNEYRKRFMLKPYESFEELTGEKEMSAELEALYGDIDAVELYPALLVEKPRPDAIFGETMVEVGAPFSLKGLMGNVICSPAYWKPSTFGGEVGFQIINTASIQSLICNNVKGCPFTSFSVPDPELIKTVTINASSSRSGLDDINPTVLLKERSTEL
Method: (§3) Methods—Enzyme and Uptake Assays: In vitro enzyme and uptake assays were conducted by Eurofins Discovery using human recombinant enzymes expressed in various mammalian and insect cell lines. Enzymatic activity was measured using appropriate substrates or tracers under conditions optimized for each target, as detailed in Table 7. Reactions were incubated at room temperature for a defined duration and terminated according to established protocols. The measured components (either enzymatic products or remaining substrate) were quantified using fluorimetry, photometry, scintillation counting, or LANCE technology, depending on the assay. Assay-specific parameters, including substrate identity, cell line source, incubation time, and detection method, are provided in Table 7.
(§4) All measurements were performed in technical replicates to ensure reproducibility and data quality.
(§5) Results were expressed both as a percentage of control-specific activity and as percent inhibition of control-specific activity. Percent activity was calculated as (measured specific activity/control specific activity)×100, and percent inhibition as 100−[(measured specific activity/control specific activity)×100], based on values obtained in the presence of test compounds. IC50 and EC50 values, along with Hill coefficients (nH), were determined by nonlinear regression analysis of inhibition or concentration-response curves generated from mean replicate values. Hill curve fitting was performed as previously described using software developed at Cerep and validated against SigmaPlot® 4.0 for Windows® (© 1997 by SPSS Inc.).

PDE3A(h) = target: T7, PDE3A(h) (Homo sapiens, UniProt Q14432); experiment: Enzyme assay PDE3A(h), [3H]cAMP, scintillation counting; assay type: biochemical
T7 construct: host or cells: Sf21 cells
T7 sequence (Q14432 whole entry): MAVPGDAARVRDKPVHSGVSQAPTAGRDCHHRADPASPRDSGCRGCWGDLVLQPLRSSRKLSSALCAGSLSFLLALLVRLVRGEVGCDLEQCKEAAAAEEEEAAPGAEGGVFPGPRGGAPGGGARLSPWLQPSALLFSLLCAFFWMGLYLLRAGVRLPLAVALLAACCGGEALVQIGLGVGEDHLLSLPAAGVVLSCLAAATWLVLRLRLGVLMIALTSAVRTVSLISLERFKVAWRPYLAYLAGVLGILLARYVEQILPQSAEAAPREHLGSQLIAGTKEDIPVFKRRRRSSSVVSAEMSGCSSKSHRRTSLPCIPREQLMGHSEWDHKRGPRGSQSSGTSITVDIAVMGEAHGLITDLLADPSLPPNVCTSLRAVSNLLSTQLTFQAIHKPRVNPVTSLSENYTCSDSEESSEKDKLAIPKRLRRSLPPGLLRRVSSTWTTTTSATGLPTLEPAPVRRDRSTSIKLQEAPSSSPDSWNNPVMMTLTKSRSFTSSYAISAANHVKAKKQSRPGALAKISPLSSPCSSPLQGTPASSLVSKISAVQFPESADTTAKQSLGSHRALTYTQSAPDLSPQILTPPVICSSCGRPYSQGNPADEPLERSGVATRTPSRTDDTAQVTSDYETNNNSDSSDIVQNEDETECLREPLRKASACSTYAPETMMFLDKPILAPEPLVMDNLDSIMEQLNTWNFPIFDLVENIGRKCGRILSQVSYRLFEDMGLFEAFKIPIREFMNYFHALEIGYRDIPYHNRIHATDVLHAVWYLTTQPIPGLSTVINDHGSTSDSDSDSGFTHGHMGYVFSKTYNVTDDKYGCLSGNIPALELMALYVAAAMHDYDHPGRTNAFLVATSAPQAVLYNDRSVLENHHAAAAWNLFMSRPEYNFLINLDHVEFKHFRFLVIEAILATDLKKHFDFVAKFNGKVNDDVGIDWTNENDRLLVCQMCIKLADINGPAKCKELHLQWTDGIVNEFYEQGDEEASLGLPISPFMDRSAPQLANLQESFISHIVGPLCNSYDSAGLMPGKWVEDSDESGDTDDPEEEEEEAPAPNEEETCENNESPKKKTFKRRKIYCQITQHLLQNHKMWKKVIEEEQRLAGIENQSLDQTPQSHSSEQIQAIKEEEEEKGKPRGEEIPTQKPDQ
Method: as §3, §4, §5

male C57BL/6J mice = experiment: Motor activity / distance traveled measured in parallel with HTR; assay type: in vivo, mouse; conditions: i.p.; for motor activity, in words: magnetometer activity
[1] = Aqueous solubility by sequential dilution in water, microscopic inspection; conditions: for aqueous solubility relative to reference compound 2C-iBu: under the same conditions; for solubility: water, thermodynamic from solid

T1 sequence (P25021 whole entry): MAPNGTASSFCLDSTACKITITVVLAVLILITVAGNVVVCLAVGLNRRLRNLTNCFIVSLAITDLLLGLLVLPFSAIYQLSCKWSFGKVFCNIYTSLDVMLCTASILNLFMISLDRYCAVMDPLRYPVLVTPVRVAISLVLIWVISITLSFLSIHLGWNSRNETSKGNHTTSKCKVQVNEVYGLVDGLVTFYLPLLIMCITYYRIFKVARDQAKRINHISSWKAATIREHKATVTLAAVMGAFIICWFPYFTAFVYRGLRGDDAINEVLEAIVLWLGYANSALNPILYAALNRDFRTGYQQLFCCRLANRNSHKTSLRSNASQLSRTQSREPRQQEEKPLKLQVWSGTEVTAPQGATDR

Structure (SMILES)	Mean Percent Inhibition of Control Specific Binding (H2 (h)) [%]	Mean Percent Inhibition of Control Specific Binding (M2 (h)) [%]	Mean Percent Inhibition of Control Specific Binding (M3 (h)) [%]	Mean Percent Inhibition of Control Specific Binding (delta (DOP) (h)) [%]	Mean Percent Inhibition of Control Specific Binding (dopamine transporter(h)) [%]	Mean Percent Inhibition of Control Specific Binding (COX2(h)) [%]	Mean Percent Inhibition of Control Specific Binding (PDE3A(h)) [%]	motor activity, in words (male C57BL/6J mice)	motor activity ID50 (male C57BL/6J mice) [mpk]	aqueous solubility relative to reference compound 2C-iBu [1]	aqueous solubility relative to reference compound 2C-iBu ([1]; listed as Compound 8)	solubility [1] [mM]	Distance traveled (locomotor activity), in words (male C57BL/6J mice; 0.03-30 mpk, over 30 minutes)
COCCc1cc(CCN)c(OC)cc1Br [Compound 2CB-5ME, reference compound]	−0.6	21.5	47.9	9.7	6.2	−10.4	−4.6	motor suppression reaching statistical significance at 30 mpk	–	–	–	–	–
COCc1cc(CCN)c(OC)cc1CC(C)C [Compound 2CiBu-5MM, 2-[4-isobutyl-2-methoxy-5-(methoxymethyl)phenyl]ethanamine]	−16.5	16.0	31.8	11.9	7.7	−7.0	8.2	statistically significant suppression of motor activity at the two highest doses tested of 10 and 30 mpk	> 3	significantly higher aqueous solubility	over ten times more soluble	365 (≈ 91.7 mg/mL)	–
COCc1cc(CCN)c(O)cc1CC(C)C [2CiBu-2OH-5MM, 2-(2-aminoethyl)-5-isobutyl-4-(methoxymethyl)phenol]	12.5	14.9	10.6	19.5	22.3	10.2	35.1	–	–	significantly higher aqueous solubility	–	110 (≈ 26.2 mg/mL)	–
COCc1cc(CCN)c(OC)cc1Br [Compound 2CB-5MM, 2-(4-bromo-2-methoxy-5-(methoxymethyl)phenyl)ethan-1-amine]	−14.7	10.0	29.2	8.5	10.7	−8.0	14.5	–	–	–	–	43.5 (≈ 11.9 mg/mL)	remained consistent across doses
